What was measured:
PC-3 [1] = test: Cytotoxicity against human PC3 cells after 48 hrs by MTT assay; format: functional, cell-based; details: PC-3, 48 h
Rattus norvegicus = species: Rattus norvegicus; test: Inhibition of rat liver 5alpha-reductase at 50 uM using testosterone as substrate incubated for 30 mins measured for 10 mins by fluorescence assay relative to control
PC-3 [2] = test: Growth inhibition of human PC3 cells at 80 uM after 48 hrs by MTT assay relative to control; format: functional; details: PC-3, 48 h, read-out: GI
[3] = target: Androgen receptor (Homo sapiens) (UniProt P10275); test: Inhibition of recombinant human His-tagged/GST-fused androgen receptor LBD expressed in baculovirus expression system at 50 uM measured after 1.5 hrs by fluorescence polarization assay relative to control
[4] = Inhibition of rat liver 5alpha-reductase using testosterone as substrate incubated for 30 mins measured for 10 mins by fluorescence assay
LNCaP [5] = test: Growth inhibition of human LNCAP cells at 80 uM after 48 hrs by MTT assay relative to control; format: functional; details: read-out: GI
[6] = target: T1, 3-oxo-5-alpha-steroid 4-dehydrogenase 1 (Homo sapiens, UniProt P18405); test: Inhibition of recombinant human 5alpha-reductase type1 expressed in baculovirus expression system using [7-3H]T as substrate pretreated for 18 hrs followed by substrate addition measured after 90 mins by reverse-phase HPLC method
T1 sequence (P18405 whole entry): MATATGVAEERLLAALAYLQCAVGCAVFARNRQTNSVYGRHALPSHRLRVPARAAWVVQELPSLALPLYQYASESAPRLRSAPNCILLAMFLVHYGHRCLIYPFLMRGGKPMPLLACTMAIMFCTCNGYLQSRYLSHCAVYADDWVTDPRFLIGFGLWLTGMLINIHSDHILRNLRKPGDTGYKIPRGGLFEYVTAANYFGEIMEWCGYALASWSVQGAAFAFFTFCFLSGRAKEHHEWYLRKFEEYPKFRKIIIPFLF

[7] = target: T2, 3-oxo-5-alpha-steroid 4-dehydrogenase 2 (Homo sapiens, UniProt P31213); test: Inhibition of recombinant human 5alpha-reductase type2 expressed in baculovirus expression system using [7-3H]T as substrate pretreated for 18 hrs followed by substrate addition by reverse-phase HPLC method
T2 sequence (P31213 whole entry): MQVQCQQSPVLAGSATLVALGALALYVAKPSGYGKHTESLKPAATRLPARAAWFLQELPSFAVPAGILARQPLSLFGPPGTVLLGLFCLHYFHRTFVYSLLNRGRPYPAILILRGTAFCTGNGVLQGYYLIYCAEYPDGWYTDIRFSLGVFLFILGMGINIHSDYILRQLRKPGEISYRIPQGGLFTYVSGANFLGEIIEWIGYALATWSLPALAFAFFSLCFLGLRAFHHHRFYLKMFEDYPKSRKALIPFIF

Androgen receptor [8] = target: T3, Androgen receptor (Homo sapiens, UniProt P10275); test: Displacement of [3H]-DHT from recombinant human androgen receptor expressed in CHO cells; format: cell-based
T3 sequence (P10275 whole entry): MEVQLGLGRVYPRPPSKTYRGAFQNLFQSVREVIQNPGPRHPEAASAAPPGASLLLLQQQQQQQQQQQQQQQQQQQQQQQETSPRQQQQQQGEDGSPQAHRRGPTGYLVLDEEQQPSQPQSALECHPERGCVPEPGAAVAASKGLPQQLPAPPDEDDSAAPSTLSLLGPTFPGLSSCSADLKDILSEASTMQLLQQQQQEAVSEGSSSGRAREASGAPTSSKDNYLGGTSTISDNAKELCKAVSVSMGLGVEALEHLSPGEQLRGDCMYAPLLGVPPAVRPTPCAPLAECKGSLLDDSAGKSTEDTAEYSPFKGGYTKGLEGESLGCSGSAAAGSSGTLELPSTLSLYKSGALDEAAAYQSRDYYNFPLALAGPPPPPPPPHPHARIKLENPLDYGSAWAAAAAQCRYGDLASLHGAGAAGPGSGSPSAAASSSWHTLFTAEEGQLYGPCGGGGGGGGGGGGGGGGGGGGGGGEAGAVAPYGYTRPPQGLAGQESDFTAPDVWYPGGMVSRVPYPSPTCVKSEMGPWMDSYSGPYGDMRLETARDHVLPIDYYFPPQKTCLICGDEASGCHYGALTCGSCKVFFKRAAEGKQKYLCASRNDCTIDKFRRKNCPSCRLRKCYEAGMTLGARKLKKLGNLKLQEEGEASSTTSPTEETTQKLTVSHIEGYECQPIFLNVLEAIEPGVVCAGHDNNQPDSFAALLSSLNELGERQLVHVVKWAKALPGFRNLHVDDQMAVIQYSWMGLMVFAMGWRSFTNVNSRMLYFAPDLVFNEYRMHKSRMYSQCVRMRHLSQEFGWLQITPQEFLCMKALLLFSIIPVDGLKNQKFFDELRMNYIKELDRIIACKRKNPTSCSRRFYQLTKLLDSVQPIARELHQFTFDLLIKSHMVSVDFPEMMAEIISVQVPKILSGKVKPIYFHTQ

Androgen receptor [9] = target: T4, Androgen receptor (Rattus norvegicus, UniProt P15207); test: Displacement of fluormone-AL Green from recombinant rat His-tagged/GST-fused androgen receptor LBD expressed in baculovirus expression system measured after 1.5 hrs by fluorescence polarization assay
T4 sequence (P15207 whole entry): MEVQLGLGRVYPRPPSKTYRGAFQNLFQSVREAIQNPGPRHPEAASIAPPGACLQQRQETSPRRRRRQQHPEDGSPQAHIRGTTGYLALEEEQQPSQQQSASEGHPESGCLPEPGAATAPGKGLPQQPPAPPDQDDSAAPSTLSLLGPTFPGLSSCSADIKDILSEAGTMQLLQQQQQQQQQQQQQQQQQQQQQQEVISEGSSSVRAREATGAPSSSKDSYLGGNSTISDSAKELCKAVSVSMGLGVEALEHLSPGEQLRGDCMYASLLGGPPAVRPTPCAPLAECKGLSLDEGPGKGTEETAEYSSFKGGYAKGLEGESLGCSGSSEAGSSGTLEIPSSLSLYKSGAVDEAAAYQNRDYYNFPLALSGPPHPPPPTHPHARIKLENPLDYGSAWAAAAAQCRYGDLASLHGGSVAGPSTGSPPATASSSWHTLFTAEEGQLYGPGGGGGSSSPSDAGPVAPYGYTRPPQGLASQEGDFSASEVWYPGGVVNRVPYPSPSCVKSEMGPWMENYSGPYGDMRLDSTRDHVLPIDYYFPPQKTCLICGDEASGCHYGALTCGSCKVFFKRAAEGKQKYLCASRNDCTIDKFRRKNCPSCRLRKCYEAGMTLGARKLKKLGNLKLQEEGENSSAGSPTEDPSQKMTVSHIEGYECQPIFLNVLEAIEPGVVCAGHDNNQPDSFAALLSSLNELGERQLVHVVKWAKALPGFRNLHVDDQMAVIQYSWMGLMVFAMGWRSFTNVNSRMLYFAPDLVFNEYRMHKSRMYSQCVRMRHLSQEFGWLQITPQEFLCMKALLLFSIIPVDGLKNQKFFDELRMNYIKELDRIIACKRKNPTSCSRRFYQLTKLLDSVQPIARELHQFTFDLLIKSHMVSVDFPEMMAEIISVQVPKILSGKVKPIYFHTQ

LNCaP [10] = test: Cytotoxicity against human LNCAP cells after 48 hrs by MTT assay; format: functional, cell-based
[11] = Selectivity ratio of IC50 for human PC3 cells to IC50 for human LNCAP cells; format: functional

Row | SMILES | IC50 (PC-3 [1]) [µM] | inhibition (Rattus norvegicus) [%] | inhibition of growth at 80 µM (PC-3 [2]) [%] | inhibition [3] [%] | IC50 [4] [µM] | inhibition of growth at 80 µM (LNCaP [5]) [%] | IC50 [6] [µM] | IC50 [7] [µM] | IC50 (Androgen receptor [8]) [µM] | IC50 (Androgen receptor [9]) [µM] | IC50 (LNCaP [10]) [µM] | Ratio IC50 [11]
1 | C[C@]12CCC(=O)O[C@@H]1CC[C@@H]1[C@@H]2CC[C@]2(C)[C@@H](C(=O)N3CCCCC3)CC[C@@H]12 | 85.4 | 89.3 | 26.2 | 17.4 | 6.01 | 12.3 |  |  |  |  |  | 
2 | CN(C(=O)[C@H]1CC[C@H]2[C@@H]3CC[C@H]4OC(=O)CC[C@]4(C)[C@H]3CC[C@]12C)c1ccccc1 | 62.2 | 84.2 | 35.1 | 14.3 | 0.89 | 30 |  |  |  |  |  | 
3 | C[C@]12CCC(=O)N[C@@H]1CC[C@@H]1[C@@H]2CC[C@]2(C)[C@@H](C(=O)Nc3ccccc3)CC[C@@H]12 |  |  |  |  |  |  | 0.41 | 0.015 | 23 |  |  | 
4 | C[C@]12CCC(=O)O[C@@H]1CC[C@@H]1[C@@H]2CC[C@]2(C)[C@@H](C(=O)N(c3ccccc3)c3ccccc3)CC[C@@H]12 | 75.2 | 15.5 | 35.4 | 3.29 |  | 31.4 |  |  |  |  |  | 
5 | C[C@]12CCC(=O)O[C@@H]1CC[C@@H]1[C@@H]2CC[C@]2(C)[C@@H](C(=O)Nc3ccc(F)cc3)CC[C@@H]12 | 50 | 46.9 | 46.3 | 18.9 |  | 39.7 |  |  |  |  |  | 
6 | C[C@]12CCC(=O)O[C@@H]1CC[C@@H]1[C@@H]2CC[C@]2(C)[C@@H](C(=O)Nc3ccccc3)CC[C@@H]12 | 86.2 | 67.3 | 31.7 | 7.09 |  | 24.2 |  |  |  |  |  | 
7 | C[C@]12CCC(=O)O[C@@H]1CC[C@@H]1[C@@H]2CC[C@]2(C)[C@@H](C(=O)N(Cc3ccccc3)Cc3ccccc3)CC[C@@H]12 | 127 | 69.8 | 12.9 | 57.1 |  | 81.8 |  |  |  | 16.8 | 29.8 | 4

Reference: ChEMBL document CHEMBL4052802, “Design, synthesis and biological evaluation of novel 3-oxo-4-oxa-5α-androst-17β-amide derivatives as dual 5α-reductase inhibitors and androgen receptor antagonists” (Bioorg Med Chem Lett, 2017)
